Reference: patent EP0326331B1, “Substituted quinolines and cinnolines” (Dow AgroSciences LLC, priority 1988, dated 1989)

Columns and labels:
Assay type in all cases: in vivo
[1] = system: Pseudoperonospora cubensis (downy mildew); experiment: Test 1 greenhouse foliar spray screen, downy mildew on squash; details: Pseudoperonospora cubensis, foliar, Test 1, foliar spray on squash; disease control rating at 400 ppm / 100 ppm; read-out: DOWN MDEW
[2] = system: melon aphids (Aphis gossypii Glover); experiment: Mite/insect screen, MA; details: Aphis gossypii, foliar, percent mortality, foliar spray on squash, read-out: MA RESULTS %; for mortality at 200 ppm: rate 200 ppm; for mortality at 400 ppm: rate 400 ppm
Method in brief: (§1)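 Activity is expressed as percent mortality at the indicated spray concentrations. Plants are sprayed to runoff on upper and lower leaf surfaces with aqueous dilutions of an acetone/alcohol emulsifiable formulation, then dried for one hour.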

[3] = system: corn rootworm; experiment: Mite/insect screen, CRW; details: percent mortality, read-out: CRW RESULTS %; for mortality at 12 ppm: CRW rate 12.00 ppm; for mortality at 24 ppm: CRW rate 24.00 ppm
Method in brief: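 Each compound, taken up in an emulsifier-containing acetone/alcohol mixture and diluted in water to the stated concentrations, was assessed for percent kill following standard exposure times.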

[4] = system: Pyricularia oryzae (rice blast); experiment: whole plant or invertebrate; details: Pyricularia oryzae, foliar, read-out: RICE BLAST, Test 1, foliar spray on rice; disease control rating at 400 ppm / 100 ppm
[5] = system: Twospotted spider mites (Tetranychus urticae Koch); experiment: Mite/insect screen, SM; details: Tetranychus urticae, foliar, percent mortality, foliar spray on squash, read-out: SM RESULTS %; for mortality at 200 ppm: rate 200 ppm; for mortality at 400 ppm: rate 400 ppm
Method in brief: as §1

[6] = system: Botrytis cinerea (gray mold); experiment: Test 1 greenhouse foliar spray screen, gray mold on grape berries; details: Botrytis cinerea, foliar; Test 1, spray on grape berries; disease control rating at 400 ppm / 100 ppm
[7] = system: Puccinia recondita tritici (leaf rust); experiment: Test 1 greenhouse foliar spray screen, leaf rust on wheat; details: Puccinia recondita, foliar, Test 1, foliar spray on wheat; disease control rating at 400 ppm / 100 ppm
[8] = system: southern armyworm (Spodopetra eridania Cramer); experiment: Mite/insect screen, SAW; details: Spodoptera eridania, foliar, percent mortality, foliar spray on squash, read-out: SAW RESULTS %; for mortality at 200 ppm: rate 200 ppm; for mortality at 400 ppm: rate 400 ppm
Method in brief: as §1

[9] = system: Erysiphe graminis tritici (powdery mildew); experiment: Test 1 greenhouse foliar spray screen, powdery mildew on wheat; details: Blumeria graminis, foliar, Test 1, foliar spray on wheat; disease control rating at 400 ppm / 100 ppm; read-out: POWD MDEW

Compound	pest or weed control at 400 ppm [1]	mortality at 200 ppm [2]	mortality at 400 ppm [2]	mortality at 12 ppm [3]	mortality at 24 ppm [3]	pest or weed control at 400 ppm [4]	mortality at 200 ppm [5]	mortality at 400 ppm [5]	pest or weed control at 400 ppm [6]	pest or weed control at 400 ppm [7]	mortality at 200 ppm [8]	mortality at 400 ppm [8]	pest or weed control at 400 ppm [9]
OCCc1ccc(CCOc2ccnc3c(F)cccc23)cc1 [Example 265, 8-fluoro-4-[2-[4-(2-hydroxyethyl)phenyl]ethoxy]quinoline]	0 to 19%	0%	0%	0%	0%	90 to 100%	0%	0%	0 to 19%	90 to 100%	0%	0%	0 to 19%
COC(C)CCOc1ccnc2c(F)cccc12 (centres unmarked) [Example 266, 8-fluoro-4-[3-methoxybutoxy]quinoline]	0 to 19%	0%	0%	0%	0%	0 to 19%	0%	0%	0 to 19%	0 to 19%	0%	0%	0 to 19%
C=CCCCOc1ccnc2c(F)cccc12 [Example 267, 8-fluoro-4-(4-pentenoxy)quinoline]	20 to 89%	20%	100%	0%	0%	90 to 100%	40%	100%	0 to 19%	90 to 100%	0%	0%	90 to 100%
Fc1cccc2c(NCCCCc3ccccc3)ccnc12 [Example 268, 8-fluoro-N-(4-phenylbutyl)-4-quinolinamine]	90 to 100%	0%	0%	0%	0%	90 to 100%	0%	80%	0 to 19%	90 to 100%	0%	0%	20 to 89%
Fc1cccc2c(OCCc3ccccc3Cl)ccnc12 [Example 269, 4-[2-(2-chlorophenyl)ethoxy]-8-fluoroquinoline]	90 to 100%	30%	0%	0%	40%	90 to 100%	–	0%	0 to 19%	90 to 100%	0%	0%	90 to 100%
CCC(COc1ccnc2c(F)cccc12)c1ccc(-c2ccccc2)cc1 (centres unmarked) [Example 270, 4-[2-[1,1'-biphenyl]-4-ylbutoxy]-8-fluoroquinoline]	0 to 19%	0%	0%	0%	0%	20 to 89%	0%	80%	0 to 19%	0 to 19%	20%	0%	0 to 19%
CC(C)(C)c1ccc(CCCNc2ccnc3c(F)cccc23)cc1 [Example 271, N-[3-[4-(t-butyl)phenyl]propyl]-8-fluoro-4-quinolinamine]	90 to 100%	0%	0%	0%	0%	90 to 100%	0%	0%	0 to 19%	20 to 89%	0%	0%	0 to 19%
Fc1cccc2c(OCCCCOc3ccccc3)ccnc12 [Example 272, 8-fluoro-4-(4-phenoxybutoxy)quinoline]	20 to 89%	0%	0%	0%	0%	20 to 89%	0%	20%	0 to 19%	0 to 19%	0%	0%	0 to 19%
CC(=O)Oc1ccc(CCN(C(C)=O)c2ccnc3c(F)cccc23)cc1 [Example 273, N-[2-(4-acetoxyphenyl)ethyl]-N-(8-fluoro-4-quinolinyl)acetamide]	20 to 89%	–	0%	–	0%	90 to 100%	–	0%	0 to 19%	20 to 89%	–	0%	20 to 89%
CC(CCOc1ccnc2c(F)cccc12)CC(C)(C)C (centres unmarked) [Example 274, 8-fluoro-4-(3,5,5-trimethylhexyloxy)quinoline]	20 to 89%	100%	100%	0%	0%	90 to 100%	100%	0%	0 to 19%	90 to 100%	0%	0%	90 to 100%
Fc1ccc(CCOc2ccnc3c(F)cccc23)c(F)c1 [Example 275, 8-fluoro-4-[2-(2,4-difluorophenyl)ethoxy]quinoline]	90 to 100%	90%	100%	0%	0%	90 to 100%	0%	60%	0 to 19%	90 to 100%	0%	0%	90 to 100%
Fc1ccc(CCOc2ccnc3cc(Cl)ccc23)c(F)c1 [Example 276, 7-chloro-4-[2-(2,4-difluorophenyl)ethoxy]quinoline]	0 to 19%	0%	80%	0%	0%	0 to 19%	0%	60%	0 to 19%	20 to 89%	0%	0%	90 to 100%
CCOc1ccc(CCOc2ccnc3cc(Cl)cc(Cl)c23)cc1 [Example 277, 5,7-dichloro-4-[2-(4-ethoxyphenyl)ethoxy]quinoline]	0 to 19%	–	0%	–	0%	0 to 19%	–	0%	0 to 19%	0 to 19%	–	0%	90 to 100%
CCCCOc1ccc(CCOc2ccnc3c(F)cccc23)cc1 [Example 278, 4-[2-(4-butoxyphenyl)ethoxy]-8-fluoroquinoline]	90 to 100%	90%	0%	0%	0%	90 to 100%	60%	0%	0 to 19%	90 to 100%	0%	100%	90 to 100%
